According to paper PMC5023777 (British Journal of Cancer, 2016):

What was measured:
[1] = system: HCT116 cells; test: Clonogenic survival assay, HCT116; assay type: cell-based, human; settings: 10 μM, 72 h exposure
[2] = target: mTOR (Homo sapiens, UniProt P42345); test: mTOR kinase TR-FRET assay; assay type: biochemical
[3] = system: HCT116 cells; test: SRB cell growth inhibition assay, HCT116; assay type: cell-based, human; settings: HCT116 and HT29 cells, SRB GI50
[4] = target: CDK2 (Homo sapiens, UniProt P24941); test: CDK2 purified kinase assay; assay type: biochemical
[5] = system: HCT116 cells; test: Cell cycle phase analysis by flow cytometry, HCT116; settings: GI50 concentration (100 μM for 6 and 3), 24 h, asynchronous cultures

Sequence of mTOR (P42345 1360-2549 limits assumed): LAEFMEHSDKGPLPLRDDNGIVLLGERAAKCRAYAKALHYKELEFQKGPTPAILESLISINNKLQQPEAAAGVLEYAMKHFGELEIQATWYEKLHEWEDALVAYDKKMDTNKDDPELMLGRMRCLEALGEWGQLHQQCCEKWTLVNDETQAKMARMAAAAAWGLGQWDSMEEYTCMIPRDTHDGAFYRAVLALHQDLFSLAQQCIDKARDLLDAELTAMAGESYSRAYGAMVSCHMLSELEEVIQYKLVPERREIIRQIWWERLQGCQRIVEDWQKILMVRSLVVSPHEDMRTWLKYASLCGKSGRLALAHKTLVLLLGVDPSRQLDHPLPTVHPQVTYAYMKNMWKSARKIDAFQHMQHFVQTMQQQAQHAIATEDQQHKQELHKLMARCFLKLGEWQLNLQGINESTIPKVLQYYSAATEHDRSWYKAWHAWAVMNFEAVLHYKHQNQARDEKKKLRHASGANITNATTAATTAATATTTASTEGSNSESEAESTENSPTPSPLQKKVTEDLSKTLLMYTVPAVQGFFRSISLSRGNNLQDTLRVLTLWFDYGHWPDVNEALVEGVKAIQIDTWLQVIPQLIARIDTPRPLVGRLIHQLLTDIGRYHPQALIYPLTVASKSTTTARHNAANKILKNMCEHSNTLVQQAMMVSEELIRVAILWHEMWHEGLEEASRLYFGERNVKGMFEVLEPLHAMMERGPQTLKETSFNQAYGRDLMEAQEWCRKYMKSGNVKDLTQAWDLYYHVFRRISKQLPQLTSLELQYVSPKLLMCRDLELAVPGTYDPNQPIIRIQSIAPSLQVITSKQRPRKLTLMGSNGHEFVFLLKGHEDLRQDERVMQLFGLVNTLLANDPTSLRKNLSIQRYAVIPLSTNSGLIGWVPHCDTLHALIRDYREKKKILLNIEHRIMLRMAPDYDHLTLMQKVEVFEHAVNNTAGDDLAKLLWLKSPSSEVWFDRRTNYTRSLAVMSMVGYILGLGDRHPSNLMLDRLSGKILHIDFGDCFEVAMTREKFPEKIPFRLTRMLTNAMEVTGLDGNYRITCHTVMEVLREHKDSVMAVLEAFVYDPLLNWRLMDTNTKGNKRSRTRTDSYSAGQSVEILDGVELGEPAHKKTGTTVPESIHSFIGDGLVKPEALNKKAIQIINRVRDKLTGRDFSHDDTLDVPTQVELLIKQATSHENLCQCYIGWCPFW

IC50 [2]	Compound	fold less potent at inhibiting cell growth than 1, 2 and 5 [3]	effect on cell cycle phase distribution, HCT116 [5]	also measured
–	NS(=O)(=O)c1ccc(Nc2nc(OCC3CCCCC3)c3nc[nH]c3n2)cc1 [NU6102, 4-[[6-(cyclohexylmethoxy)-9H-purin-2-yl]amino]-benzenesulfonamide]	–	–	cytotoxicity (clonogenic), HCT116 [1]: cytotoxic as a single agent
4.9 µM	Nc1nc(N)c(N=O)c(OCc2ccc(Cl)cc2)n1 [Compound 8, 6-(4-Chlorobenzyloxy)-5-nitrosopyrimidine-2,4-diamine]	5–10 fold	–	inhibition of CDK2 (in words) [4]: did not inhibit CDK2
–	Cn1c(=O)n(-c2ccc(C(C)(C)C#N)cc2)c2c3cc(-c4cnc5ccccc5c4)ccc3ncc21 [Dactolisib (NVP-BEZ235)]	–	caused a G1 arrest	–
–	CO[C@H]1C[C@@H]2CC[C@@H](C)[C@@](O)(O2)C(=O)C(=O)N2CCCC[C@H]2C(=O)O[C@H]([C@H](C)C[C@@H]2CC[C@@H](O)[C@H](OC)C2)CC(=O)[C@H](C)/C=C(\C)[C@@H](O)[C@@H](OC)C(=O)[C@H](C)C[C@H](C)/C=C/C=C/C=C/1C [Rapamycin]	–	caused a G1 arrest	–
19 µM	Nc1nc(N)c(N=O)c(OCC2CCCCC2)n1 [Compound 2]	–	greater G1 phase accumulation than rapamycin or dactolisib	–

Compound	IC50 [2]	fold less potent at inhibiting cell growth than 1, 2 and 5 [3]	effect on cell cycle phase distribution, HCT116 [5]	also measured
CCC(C)Oc1nc(N)nc(N)c1C#N (stereo not shown) [Compound 7, 2,6-Diamino-4-sec-butoxypyrimidine-5-carbonitrile]	> 20 µM	5–10 fold	–	–
